Source: ChEMBL document CHEMBL5370560, “Isolation of Anti-SARS-CoV-2 Natural Products Extracted from Mentha canadensis and the Semi-synthesis of Antiviral Derivatives” (J Nat Prod, 2023)
Calls of active or inactive are those of the source. The calls are words filed in the database; no cut-off is given here.

Experiments:
SARS-CoV-2 [1] = experiment: Antiviral activity against SARS-CoV-2 Omicron BA.1 infected in African green monkey Vero E6 cells assessed as inhibition of plaque formation at 50 uM incubated for 1 hr followed by virus-drug mixture washout and further addition of media without compound for 5 to 7 days by crystal violet staining based assay; type: functional, organism-based; settings: Severe acute respiratory syndrome coronavirus 2
SARS-CoV-2 [2] = experiment: Antiviral activity against SARS-CoV-2 Omicron BA.1 infected in African green monkey Vero E6 cells assessed as inhibition of plaque formation incubated for 1 hr followed by virus-drug mixture washout and further addition of media without compound for 5 to 7 days by crystal violet staining based assay; type: functional, organism-based; settings: Severe acute respiratory syndrome coronavirus 2, Omicron BA.1, Vero C1008
SARS-CoV-2 [3] = experiment: Antiviral activity against SARS-CoV-2 Delta infected in African green monkey Vero E6 cells assessed as inhibition of plaque formation at 50 uM incubated for 1 hr followed by virus-drug mixture washout and further addition of media without compound for 5 to 7 days by crystal violet staining based assay; type: functional, organism-based; settings: Severe acute respiratory syndrome coronavirus 2
[4] = target: Spike glycoprotein (Severe acute respiratory syndrome coronavirus 2) (UniProt P0DTC2); experiment: Binding affinity to NTA chip immobilised recombinant SARS-CoV-2 Delta spike protein RBD at 50 uM measured for 500 secs by SPR analysis; settings: time 500.0 sec
SARS-CoV-2 [5] = experiment: Antiviral activity against SARS-CoV-2 Delta infected in African green monkey Vero E6 cells assessed as inhibition of plaque formation incubated for 1 hr followed by virus-drug mixture washout and further addition of media without compound for 5 to 7 days by crystal violet staining based assay; type: functional, organism-based; settings: Severe acute respiratory syndrome coronavirus 2, Delta, Vero C1008
[6] = Cytotoxicity against African green monkey Vero E6 cells assessed as reduction in cell viability incubated for 48 hrs by MTT assay; type: toxicity, cell-based, Vero C1008; settings: chlorocebus sabaeus
SARS-CoV-2 [7] = experiment: Antiviral activity against SARS-CoV-2 Delta infected in African green monkey Vero E6 cells assessed as inhibition of plaque formation at 5 uM incubated for 1 hr followed by virus-drug mixture washout and further addition of media without compound for 5 to 7 days by crystal violet staining based assay relative to control; type: functional, Severe acute respiratory syndrome coronavirus 2; settings: for inhibition at 5 µM: Severe acute respiratory syndrome coronavirus 2, Delta, Vero C1008
SARS-CoV-2 [8] = experiment: Antiviral activity against SARS-CoV-2 Omicron BA.1 infected in African green monkey Vero E6 cells assessed as inhibition of plaque formation at 0.5 uM incubated for 1 hr followed by virus-drug mixture washout and further addition of media without compound for 5 to 7 days by crystal violet staining based assay relative to control; type: functional, Severe acute respiratory syndrome coronavirus 2; settings: for inhibition at 0.5 µM: Severe acute respiratory syndrome coronavirus 2, Omicron BA.1, Vero C1008
SARS-CoV-2 [9] = experiment: Antiviral activity against SARS-CoV-2 Delta infected in African green monkey Vero E6 cells assessed as inhibition of plaque formation at 0.5 uM incubated for 1 hr followed by virus-drug mixture washout and further addition of media without compound for 5 to 7 days by crystal violet staining based assay relative to control; type: functional, Severe acute respiratory syndrome coronavirus 2
SARS-CoV-2 [10] = experiment: Antiviral activity against SARS-CoV-2 Omicron BA.1 infected in African green monkey Vero E6 cells assessed as inhibition of plaque formation at 5 uM incubated for 1 hr followed by virus-drug mixture washout and further addition of media without compound for 5 to 7 days by crystal violet staining based assay relative to control; type: functional, Severe acute respiratory syndrome coronavirus 2; settings: for inhibition at 5 µM: Severe acute respiratory syndrome coronavirus 2, Omicron BA.1, Vero C1008
SARS-CoV-2 [11] = experiment: Antiviral activity against SARS-CoV-2 Delta infected in African green monkey Vero E6 cells assessed as inhibition of plaque formation at 50 uM incubated for 1 hr followed by virus-drug mixture washout and further addition of media without compound for 5 to 7 days by crystal violet staining based assay relative to control; type: functional, Severe acute respiratory syndrome coronavirus 2; settings: for inhibition at 50 µM: Severe acute respiratory syndrome coronavirus 2, Delta, Vero C1008
SARS-CoV-2 [12] = experiment: Antiviral activity against SARS-CoV-2 Delta infected in African green monkey Vero E6 cells assessed as inhibition of plaque formation at 0.5 uM incubated for 1 hr followed by virus-drug mixture washout and further addition of media without compound for 5 to 7 days by crystal violet staining based assay; type: functional, organism-based; settings: Severe acute respiratory syndrome coronavirus 2
SARS-CoV-2 [13] = experiment: Antiviral activity against SARS-CoV-2 Omicron BA.1 infected in African green monkey Vero E6 cells assessed as inhibition of plaque formation at 50 uM incubated for 1 hr followed by virus-drug mixture washout and further addition of media without compound for 5 to 7 days by crystal violet staining based assay relative to control; type: functional, Severe acute respiratory syndrome coronavirus 2; settings: for inhibition at 50 µM: Severe acute respiratory syndrome coronavirus 2, Omicron BA.1, Vero C1008
SARS-CoV-2 [14] = experiment: Synergistic antiviral activity against SARS-CoV-2 Omicron BA.1 infected in Vero E6 cells assessed as reduction in plaque formation by measuring combination index at ED50 incubated for 1 hr in presence of ivermectin followed by virus-drug mixture washout and further addition of media without compound for 5 to 7 days by Chou-Talalay method; type: functional, Severe acute respiratory syndrome coronavirus 2
SARS-CoV-2 [15] = experiment: Synergistic antiviral activity against SARS-CoV-2 Delta infected in Vero E6 cells assessed as reduction in plaque formation by measuring combination index at ED50 incubated for 1 hr in presence of ivermectin followed by virus-drug mixture washout and further addition of media without compound for 5 to 7 days by Chou-Talalay method; type: functional, Severe acute respiratory syndrome coronavirus 2
SARS-CoV-2 [16] = experiment: Antiviral activity against SARS-CoV-2 Omicron BA.1 infected in African green monkey Vero E6 cells assessed as inhibition of plaque formation at 0.5 uM incubated for 1 hr followed by virus-drug mixture washout and further addition of media without compound for 5 to 7 days by crystal violet staining based assay; type: functional, organism-based; settings: Severe acute respiratory syndrome coronavirus 2
SARS-CoV-2 [17] = experiment: Antiviral activity against SARS-CoV-2 Delta infected in African green monkey Vero E6 cells assessed as inhibition of plaque formation at 5 uM incubated for 1 hr followed by virus-drug mixture washout and further addition of media without compound for 5 to 7 days by crystal violet staining based assay; type: functional, organism-based; settings: Severe acute respiratory syndrome coronavirus 2
SARS-CoV-2 [18] = experiment: Antiviral activity against SARS-CoV-2 Delta infected in African green monkey Vero E6 cells assessed as inhibition of plaque formation at 100 uM incubated for 1 hr followed by virus-drug mixture washout and further addition of media without compound for 5 to 7 days by crystal violet staining based assay relative to control; type: functional; settings: Severe acute respiratory syndrome coronavirus 2, Delta, Vero C1008
SARS-CoV-2 [19] = experiment: Antiviral activity against SARS-CoV-2 Omicron BA.1 infected in African green monkey Vero E6 cells assessed as inhibition of plaque formation at 100 uM incubated for 1 hr followed by virus-drug mixture washout and further addition of media without compound for 5 to 7 days by crystal violet staining based assay relative to control; type: functional; settings: Severe acute respiratory syndrome coronavirus 2, Omicron BA.1, Vero C1008
SARS-CoV-2 [20] = experiment: Synergistic antiviral activity against SARS-CoV-2 Omicron BA.1 infected in Vero E6 cells incubated for 1 hr in presence of ivermectin followed by virus-drug mixture washout and further addition of media without compound for 5 to 7 days by crystal violet staining based assay; type: functional, organism-based; settings: Severe acute respiratory syndrome coronavirus 2
SARS-CoV-2 [21] = experiment: Synergistic antiviral activity against SARS-CoV-2 Delta infected in Vero E6 cells incubated for 1 hr in presence of ivermectin followed by virus-drug mixture washout and further addition of media without compound for 5 to 7 days by crystal violet staining based assay; type: functional, organism-based; settings: Severe acute respiratory syndrome coronavirus 2
SARS-CoV-2 [22] = experiment: Antiviral activity against SARS-CoV-2 infected in African green monkey Vero E6 cells preincubated for 1 hr followed by addition of fresh medium containing compounds and measured after 24 hrs by qRT-PCR analysis; type: functional, organism-based; settings: Severe acute respiratory syndrome coronavirus 2, Vero C1008

Structure (SMILES) | CC50 at 48 h [6] [µM] | inhibition at 50 µM (SARS-CoV-2 [11]) [%] | inhibition (SARS-CoV-2 [12]) | inhibition at 50 µM (SARS-CoV-2 [13]) [%] | inhibition at 5 µM (SARS-CoV-2 [10]) [%] | inhibition (SARS-CoV-2 [17]) | also measured
CCCCCCCCCCCCNC(=O)[C@@H](Cc1ccc(O)c(O)c1)OC(=O)/C=C/c1ccc(O)c(O)c1 | 17.5 | – | – | – | – | – | inhibition (SARS-CoV-2 [1]): inactive; IC50 (SARS-CoV-2 [2]): 0.77 µM; inhibition (SARS-CoV-2 [3]): inactive; Activity [4]: inactive; IC50 (SARS-CoV-2 [5]): 0.93 µM; inhibition (INH) (SARS-CoV-2 [7]): 78%; inhibition (INH) (SARS-CoV-2 [8]): 17%; inhibition (INH) (SARS-CoV-2 [9]): 15%; inhibition (INH) (SARS-CoV-2 [10]): 54%
O=C(/C=C/c1ccc(O)c(O)c1)O[C@H](Cc1ccc(O)c(O)c1)C(=O)NCCCCCCCl | > 100 | 75 | inactive | 66 | 29 | – | inhibition at 5 µM (SARS-CoV-2 [7]): 18%; inhibition at 0.5 µM (SARS-CoV-2 [8]): 14%
COC(=O)[C@@H](Cc1ccc(O)c(O)c1)OC(=O)/C=C/c1ccc(O)c(O)c1 [METHYL ROSMARINATE] | > 1000 | – | – | – | – | – | IC50 (SARS-CoV-2 [2]): 57 µM; inhibition (SARS-CoV-2 [3]): Active; CI (SARS-CoV-2 [14]): 1.67; Activity [4]: inactive; IC50 (SARS-CoV-2 [5]): 88.9 µM; CI (SARS-CoV-2 [15]): 1.74
O=C(/C=C/c1ccc(O)c(O)c1)O[C@H](Cc1ccc(O)c(O)c1)C(=O)NCc1ccccc1 | > 100 | 57 | inactive | 58 | 17 | – | inhibition (SARS-CoV-2 [16]): inactive; inhibition at 5 µM (SARS-CoV-2 [7]): 18%
COCCNC(=O)[C@@H](Cc1ccc(O)c(O)c1)OC(=O)/C=C/c1ccc(O)c(O)c1 | > 100 | 23 | inactive | 29 | 13 | inactive | inhibition (SARS-CoV-2 [16]): inactive
O=C(O)/C=C/c1ccc(O)c(O)c1 [CAFFEIC ACID] | – | 23 | – | 36 | – | – | inhibition at 100 µM (SARS-CoV-2 [18]): 29%; inhibition at 100 µM (SARS-CoV-2 [19]): 42%
COc1cc(C(=O)O)cc(OC)c1O | – | – | – | – | – | – | inhibition (SARS-CoV-2 [3]): Active; Activity (SARS-CoV-2 [20]): inactive; Activity (SARS-CoV-2 [21]): inactive
C#CCNC(=O)[C@@H](Cc1ccc(O)c(O)c1)OC(=O)/C=C/c1ccc(O)c(O)c1 | > 100 | 30 | inactive | 26 | 17 | inactive | inhibition at 0.5 µM (SARS-CoV-2 [8]): 17%
COc1c(O)c(OC)c2oc(-c3ccc(O)cc3)cc(=O)c2c1O | – | – | – | – | – | – | inhibition (SARS-CoV-2 [3]): Active
O=C(/C=C/c1ccc(O)c(O)c1)O[C@H](Cc1ccc(O)c(O)c1)C(=O)N1CCOCC1 | > 100 | 8 | inactive | 23 | 19 | inactive | inhibition (SARS-CoV-2 [16]): inactive
O=C(/C=C/c1ccc(O)c(O)c1)O[C@H](Cc1ccc(O)c(O)c1)C(=O)NCc1ccco1 | > 100 | 20 | inactive | 66 | 29 | inactive | inhibition (SARS-CoV-2 [16]): inactive
O=C(/C=C/c1ccc(O)c(O)c1)O[C@H](Cc1ccc(O)c(O)c1)C(=O)O [ROSMARINIC ACID] | – | 7 | – | 33 | – | – | inhibition at 100 µM (SARS-CoV-2 [18]): 9%; inhibition at 100 µM (SARS-CoV-2 [19]): 40%
O=C(/C=C/c1ccc(O)c(O)c1)O[C@H](Cc1ccc(O)c(O)c1)C(=O)N1CCCCC1 | > 100 | 33 | inactive | 67 | 38 | inactive | inhibition at 0.5 µM (SARS-CoV-2 [8]): 24%
O=C(O)[C@H](O)Cc1ccc(O)c(O)c1 | – | 19 | – | 40 | – | – | EC50 (SARS-CoV-2 [22]): 0.97 µM; inhibition at 100 µM (SARS-CoV-2 [18]): 19%; inhibition at 100 µM (SARS-CoV-2 [19]): 40%
CCc1cccc(NC(=O)[C@@H](Cc2ccc(O)c(O)c2)OC(=O)/C=C/c2ccc(O)c(O)c2)c1 | 50.7 | – | – | – | – | – | IC50 (SARS-CoV-2 [2]): 2.7 µM; Activity [4]: inactive; IC50 (SARS-CoV-2 [5]): 12.6 µM; inhibition (INH) (SARS-CoV-2 [7]): 53%; inhibition (INH) (SARS-CoV-2 [11]): 100%; inhibition (INH) (SARS-CoV-2 [8]): 24%; inhibition (INH) (SARS-CoV-2 [9]): 14%; inhibition (INH) (SARS-CoV-2 [13]): 100%; inhibition (INH) (SARS-CoV-2 [10]): 57%
CCCCCCNC(=O)[C@@H](Cc1ccc(O)c(O)c1)OC(=O)/C=C/c1ccc(O)c(O)c1 | > 100 | 95 | inactive | 77 | 21 | – | inhibition at 5 µM (SARS-CoV-2 [7]): 23%; inhibition at 0.5 µM (SARS-CoV-2 [8]): 21%
